# Test results taken from patent publication US10508077B2 (FORMA Therapeutics, Inc., priority 2015, dated 2019).
# Molecular target: T1, Full length human recombinant HDAC8 protein (Homo sapiens, UniProt Q9BY41)
# T1 construct: Full length human recombinant HDAC8 protein was expressed in baculoviral system; made in house
# T1 sequence (Q9BY41 1-377): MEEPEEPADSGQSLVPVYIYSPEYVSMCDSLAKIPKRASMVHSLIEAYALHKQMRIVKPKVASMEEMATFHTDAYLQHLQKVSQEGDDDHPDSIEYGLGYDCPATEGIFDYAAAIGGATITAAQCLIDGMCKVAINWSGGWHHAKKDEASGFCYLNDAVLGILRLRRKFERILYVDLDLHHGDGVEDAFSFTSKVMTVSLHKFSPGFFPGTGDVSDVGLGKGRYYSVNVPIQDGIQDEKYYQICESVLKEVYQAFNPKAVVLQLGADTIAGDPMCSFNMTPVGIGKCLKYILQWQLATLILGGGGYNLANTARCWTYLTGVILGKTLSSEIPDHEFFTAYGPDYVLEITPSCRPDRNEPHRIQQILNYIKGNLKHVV
# Test: In vitro histone deacetylase assay: enzymatic HDAC8 assay, electrophoretic mobility shift
# Type: biochemical
# Settings: substrate RHKK(Ac)-NH2, 1 nM enzyme, compounds listed under IC50 range headings
# How it was run: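 Baculovirus-expressed full-length human HDAC8 (1 nM) deacetylated 2 µM fluorescent RHKK(Ac)-NH2 peptide in pH 7.5 HEPES, 1% DMSO, at 25 °C, with 12 compound concentrations at 3× spacing. SDS-quenched; product and substrate resolved by microfluidic electrophoresis, P/(S+P) converted to percent inhibition, and IC50 obtained by 4-parameter fit.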
row,IC50 [nM],Compound
1,< 1000,"O=C(/C=C/c1ccccc1N1CCC(NS(=O)(=O)c2ccc(CNC(=O)c3ccccc3)s2)CC1)NO [Example I-240, (E)-N-((5-(N-(1-(2-(3-(hydroxyamino)-3-oxoprop-1-en-1-yl)phenyl)piperidin-4-yl)sulfamoyl)thiophen-2-yl)methyl)benzamide]"
2,< 1000,O=C(/C=C/c1ccccc1N1CCC(NS(=O)(=O)C2CC2)CC1)NO [Example I-241]
3,< 1000,"COc1ccc(OC)c(S(=O)(=O)NC2CCN(c3ccccc3/C=C/C(=O)NO)CC2)c1 [Example I-242, (E)-3-(2-(4-((2,5-dimethoxyphenyl)sulfon-amido)piperidin-1-yl)phenyl)-N-hydroxyacrylamide]"
4,< 1000,"Cc1nn(C)c(Cl)c1S(=O)(=O)N1CCN(c2ccccc2/C=C/C(=O)NO)CC1 [Example I-243, (E)-3-(2-(4-((5-chloro-1,3-dimethyl-1H-pyrazol-4-yl)sulfonyl)piperazin-1-yl)phenyl)-N-hydroxyacrylamide]"
5,< 1000,"Cn1ccc(S(=O)(=O)N2CCN(c3ccccc3/C=C/C(=O)NO)CC2)n1 [Example I-244, (E)-N-hydroxy-3-(2-(4-((1-methyl-1H-pyrazol-3-yl)sulfonyl)piperazin-1-yl)phenyl)acrylamide]"
6,< 1000,"Cc1noc(C)c1S(=O)(=O)N1CCN(c2ccccc2/C=C/C(=O)NO)CC1 [Example I-245, (E)-3-(2-(4-((3,5-dimethylisoxazol-4-yl)sulfonyl)piperazin-1-yl)phenyl)-N-hydroxyacrylamide]"
7,< 1000,"Cc1ccccc1S(=O)(=O)N1CCN(c2ccccc2/C=C/C(=O)NO)CC1 [Example I-247, (E)-N-hydroxy-3-(2-(4-(o-tolylsulfonyl)piperazin-1-yl)phenyl)acrylamide]"
8,< 1000,"O=C(/C=C/c1ccccc1N1CCN(S(=O)(=O)c2ccc(C(F)(F)F)nc2)CC1)NO [Example I-248, (E)-N-hydroxy-3-(2-(4-((6-(trifluoromethyl)pyridin-3-yl)sulfonyl)piperazin-1-yl)phenyl)acrylamide]"
9,< 1000,"CC(C)S(=O)(=O)N1CCN(c2ccccc2/C=C/C(=O)NO)CC1 [Example I-249, (E)-N-hydroxy-3-(2-(4-(isopropylsulfonyl)piper-azine-1-yl)phenyl)acrylamide]"
10,< 1000,O=C(/C=C/c1ccccc1N1CCN(S(=O)(=O)C2CCCC2)CC1)NO [Example I-250]
11,< 1000,"O=C(/C=C/c1ccccc1N1CCN(S(=O)(=O)Cc2ccc(F)cc2)CC1)NO [Example I-251, (E)-3-(2-(4-((4-fluorobenzyl)sulfonyl)pi-perazin-1-yl)phenyl)-N-hydroxyacrylamide]"
12,< 1000,"O=C(/C=C/c1ccccc1N1CCN(S(=O)(=O)c2ccc(Cl)s2)CC1)NO [Example I-253, (E)-3-(2-(4-((5-chlorothiophen-2-yl)sulfonyl)piperazin-1-yl)phenyl)-N-hydroxyacrylamide]"
13,< 1000,"O=C(/C=C/c1ccccc1N1CCN(S(=O)(=O)c2cccc3cnccc23)CC1)NO [Example I-254, (E)-N-hydroxy-3-(2-(4-(isoquinolin-5-ylsulfonyl)piperazin-1-yl)phenyl)acrylamide]"
14,< 1000,"O=C(/C=C/c1ccccc1N1CCN(S(=O)(=O)C2CCOCC2)CC1)NO [Example I-255, (E)-N-hydroxy-3-(2-(4-((tetrahydro-2H-pyran-4-yl)sulfonyl)piperazin-1-yl)phenyl)acrylamide]"
15,< 1000,"COc1ccc(S(=O)(=O)N2CCN(c3ccccc3/C=C/C(=O)NO)CC2)cc1OC [Example I-256, (E)-3-(2-(4-((3,4-dimethoxyphenyl)sulfonyl)piperazin-1-yl)phenyl)-N-hydroxyacrylamide]"
16,< 1000,"O=C(/C=C/c1ccccc1N1CCN(S(=O)(=O)Cc2cccc(F)c2)CC1)NO [Example I-257, (E)-3-(2-(4-((3-fluorobenzyl)sulfonyl)piperazin-1-yl)phenyl)-N-hydroxyacrylamide]"
17,< 1000,"Cn1cnc(S(=O)(=O)N2CCN(c3ccccc3/C=C/C(=O)NO)CC2)c1 [Example I-258, (E)-N-hydroxy-3-(2-(4-((1-methyl-1H-imidazol-4-yl)sulfonyl)piperazin-1-yl)phenyl)acrylamide]"
18,< 1000,"O=C(/C=C/c1ccccc1N1CCN(S(=O)(=O)Cc2ccc(Cl)cc2F)CC1)NO [Example I-259, (E)-3-(2-(4-((4-chloro-2-fluorobenzyl)sulfonyl)pi-perazin-1-yl)phenyl)-N-hydroxyacrylamide]"
19,< 1000,"O=C(/C=C/c1ccccc1N1CCN(S(=O)(=O)C2CC2)CC1)NO [Example I-260, (E)-3-(2-(4-(cyclopropylsulfonyl)piperazin-1-yl)phenyl)-N-hydroxyacrylamide]"

# Continued, compound first:
row,Compound,IC50 [nM]
1,"O=C(/C=C/c1ccccc1N1CCC(NS(=O)(=O)c2ccc(F)cc2)CC1)NO [Example I-222, (E)-3-(2-(4-((4-fluorophenyl)sulfonamido)piperidin-1-yl)phenyl)-N-hydroxyacrylamide]",< 1000
2,"O=C(/C=C/c1ccccc1N1CCC(NS(=O)(=O)c2ccc(Cl)cc2)CC1)NO [Example I-223, (E)-3-(2-(4-((4-chlorophenyl)sulfonamido)piperidin-1-yl)phenyl)-N-hydroxyacrylamide]",< 1000
3,"O=C(/C=C/c1ccccc1N1CCC(NS(=O)(=O)c2ccc(C(F)(F)F)cc2)CC1)NO [Example I-224, (E)-N-hydroxy-3-(2-(4-((4-(trifluoromethyl)phenyl)-sulfonamido)piperidin-1-yl)phenyl)acrylamide]",< 1000
4,"CC(C)c1ccc(S(=O)(=O)NC2CCN(c3ccccc3/C=C/C(=O)NO)CC2)cc1 [Example I-225, (E)-N-hydroxy-3-(2-(4-((4-isopropylphenyl)sulfon-amido)piperidin-1-yl)phenyl)acrylamide]",< 1000
5,"O=C(/C=C/c1ccccc1N1CCC(NS(=O)(=O)c2ccc(C(F)(F)F)nc2)CC1)NO [Example I-226, (E)-N-hydroxy-3-(2-(4-((6-(trifluoromethyl)pyridine)-3-sulfonamido)piperidin-1-yl)phenyl)acrylamide]",< 1000
6,"CCS(=O)(=O)NC1CCN(c2ccccc2/C=C/C(=O)NO)CC1 [Example I-227, (E)-3-(2-(4-(ethylsulfonamido)piperidin-1-yl)phenyl)-N-hydroxyacrylamide]",< 1000
7,"O=C(/C=C/c1ccccc1N1CCC(NS(=O)(=O)Cc2ccc(F)cc2)CC1)NO [Example I-228, (E)-3-(2-(4-(((4-fluorophenyl)methyl)sul-fonamido)piperidin-1-yl)phenyl)-N-hydroxyacrylamide]",< 1000
8,"O=C(/C=C/c1ccccc1N1CCC(NS(=O)(=O)Cc2cccc(Cl)c2)CC1)NO [Example I-229, (E)-3-(2-(4-(((3-chlorophenyl)methyl)sul-fonamido)piperidin-1-yl)phenyl)-N-hydroxyacrylamide]",< 1000
9,"Cn1ccnc1S(=O)(=O)NC1CCN(c2ccccc2C=CC(=O)NO)CC1 [Example I-230, (E)-N-hydroxy-3-(2-(4-((1-methyl-1H-imidazole)-2-sulfonamido)-piperidin-1-yl)phenyl)acrylamide]",< 1000
10,"O=C(/C=C/c1ccccc1N1CCC(NS(=O)(=O)c2ccc3c(c2)OCCO3)CC1)NO [Example I-231, (E)-3-(2-(4-((2,3-dihydrobenzo[b][1,4]dioxine)-6-sulfonamido)piperidin-1-yl)phenyl)-N-hydroxyacrylamide]",< 1000
11,"O=C(/C=C/c1ccccc1N1CCC(NS(=O)(=O)c2cccc3cnccc23)CC1)NO [Example I-232, (E)-N-hydroxy-3-(2-(4-(isoquinoline-5-sulfonamido)piperidin-1-yl)phenyl)acrylamide]",< 1000
12,COc1ccc(S(=O)(=O)NC2CCN(c3ccccc3/C=C/C(=O)NO)CC2)cc1OC [Example I-233],< 1000
13,"O=C(/C=C/c1ccccc1N1CCC(NS(=O)(=O)c2ccc(OC(F)F)cc2)CC1)NO [Example I-234, (E)-3-(2-(4-((4-(difluoromethoxy)phenyl)sulfonamido)piperidin-1-yl)phenyl)-N-hydroxyacrylamide]",< 1000
14,"O=C(/C=C/c1ccccc1N1CCC(NS(=O)(=O)Cc2cccc(F)c2)CC1)NO [Example I-235, (E)-3-(2-(4-(((3-fluorophenyl)methyl)sul-fonamido)piperidin-1-yl)phenyl)-N-hydroxyacrylamide]",< 1000
15,"O=C(/C=C/c1ccccc1N1CCC(NS(=O)(=O)c2ccc3c(c2)NC(=O)CO3)CC1)NO [Example I-236, (E)-N-hydroxy-3-(2-(4-((3-oxo-3,4-dihydro-2H-benzo[b][1,4]oxazine)-6-sulfonamido)piperidin-1-yl)phenyl)acrylamide]",< 1000
16,"Cn1cnc(S(=O)(=O)NC2CCN(c3ccccc3/C=C/C(=O)NO)CC2)c1 [Example I-237, (E)-N-hydroxy-3-(2-(4-((1-methyl-1H-imidazole)-4-sulfonamido)piperidin-1-yl)phenyl)acrylamide]",< 1000
17,"COc1ccccc1S(=O)(=O)NC1CCN(c2ccccc2/C=C/C(=O)NO)CC1 [Example I-238, (E)-N-hydroxy-3-(2-(4-((2-methoxyphenyl)sulfon-amido)piperidin-1-yl)phenyl)acrylamide]",< 1000
18,"O=C(/C=C/c1ccccc1N1CCC(NS(=O)(=O)Cc2ccc(Cl)cc2F)CC1)NO [Example I-239, (E)-3-(2-(4-(((4-chloro-2-fluorophenyl)methyl)sul-fonamido)piperidin-1-yl)phenyl)-N-hydroxyacrylamide]",< 1000
